The values that follow come from PubChem BioAssay (NCI).

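In this assay, cells in 96-well plates receive the compound at five concentrations for 48 hours. Endpoints are linearly interpolated between the surrounding concentrations. Abbreviation: GI50, concentration required for 50% inhibition of growth. TGI: total growth inhibition.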

Common to all, as to test: NCI tumour cell line growth inhibition, 48 h
In assay [1] the test system is ACHN renal.
For assay [2], the system named is SK-MEL-28 melanoma.
For assay [3], the system named is UACC-62 melanoma.
Assay [4] concerns RPMI-8226 leukemia.
Assay [5] has as its system HOP-62 NSCLC.
Assay [6] has as its system EKVX NSCLC.
The test system of assay [7] is SF-539 CNS.
In assay [8] the test system is SN12C renal.
Assay [9] has as its system HCT-15 colon.
Assay [10] concerns NCI-H226 lung.

`N#CC1CCCCCCCCCCC(=O)N(CCCl)C1=O` (centres undefined): the TGI in assay [1], in [2], in [3], in assay [4], in [5] and in [6] was greater than 100 µM each time. For the same molecule, the TGI in assay [7] and in assay [8] was greater than 100 µM in each case.

For the molecule `COc1cc(C2CC(c3ccc(Nc4ccnc5cc(Cl)ccc45)cc3)=NN2c2ccc(Cl)cc2)cc(OC)c1OC` (centres undefined), the GI50 in assay [1] was 1850 nM; in assay [2], 2660 nM; in assay [3] it was 1170 nM; in assay [9], 877 nM; in [10], 4.77 µM; in [5], 2140 nM. Moreover, the values for the GI50 in [7] and in [8] were 1740 nM and 7560 nM, respectively. Besides, the TGI was greater than 100 µM in assay [1]; 55.9 µM in [2]; 5.54 µM in assay [3]; greater than 100 µM in [9]; greater than 100 µM in assay [10]; 47.5 µM in assay [5]. Further, the TGI was 7.36 µM in assay [7] and greater than 100 µM in assay [8].

`NC(N)=NS(=O)(=O)c1ccc(NCCc2c3ccccc3nc3ccccc23)cc1`: the TGI in assay [1], in assay [2], in assay [9], in assay [4], in assay [10] and in assay [5] was greater than 100 µM each time. Moreover, the TGI in [6], in [7] and in assay [8] was greater than 100 µM each time.

Regarding `N#Cc1cccc(/C=N/N=C(\N)NO)c1`, the TGI in assay [1] is greater than 100 µM; in assay [2], greater than 100 µM; in assay [3], 52.8 µM; in assay [9], greater than 100 µM; in assay [10], greater than 100 µM; in assay [5], greater than 100 µM. The TGI in [6], in [7] and in [8] was greater than 100 µM each time.

Regarding `CCN1CCN(CC(=O)N2c3cccc4cccc(c34)N(C(=O)CN3CCN(CC)CC3)C2c2cn(-c3ccccc3)nc2-c2cccc([N+](=O)[O-])c2)CC1`, the GI50 in assay [1] was 1640 nM; in assay [2], 1750 nM; in assay [3], 1730 nM; in assay [9], 1460 nM; in assay [4], 1590 nM; in assay [5], 1630 nM. The GI50 was 1790 nM in [6], 1560 nM in assay [7] and 1490 nM in assay [8]. For the same molecule, the TGI in assay [1] came out at 3.08 µM; in assay [2] it was 3.2 µM; in assay [3] it was 3.2 µM; in assay [9], 2.98 µM; in assay [4], 3.94 µM; in [5], 3.28 µM. The TGI was found to be 3.79 µM in assay [6], 2.94 µM in assay [7] and 3.01 µM in assay [8].

As to `CCN1CCC(O)(c2ccc(Cl)cc2)C(C(=O)c2ccc(Cl)cc2)C1` (centres undefined), the TGI is greater than 100 µM in assay [1]; greater than 100 µM in [2]; greater than 100 µM in assay [3]; 64.2 µM in [4]; greater than 100 µM in [6]; greater than 100 µM in assay [7]. Also, the TGI in assay [8] was greater than 100 µM.

Turning to `O=C(c1ccccc1)c1cn(/N=C\c2ccccc2)c(=O)nc1-c1ccccc1`, the TGI in [1], in assay [2], in assay [3], in [9], in [10] and in assay [5] was greater than 100 µM throughout. For the same molecule, the TGI in assay [6], in assay [7] and in assay [8] was greater than 100 µM in each case.

For the molecule `NC(N)=NS(=O)(=O)c1ccc(Nc2c3ccccc3nc3c(C(=O)Nc4ccc(S(N)(=O)=O)cc4)cccc23)cc1`, the TGI in assay [1], in assay [2], in assay [3], in [9], in assay [4] and in assay [5] was greater than 100 µM in each case. In addition, the TGI in assay [6], in assay [7] and in assay [8] was greater than 100 µM each time.

Consider `CCCSS[C@H]1NC(=O)[C@H]1NC(=O)COc1ccccc1`, for which the TGI in [1] was 30.2 µM; in [2] it was 30.3 µM; in [3] it was 32.1 µM; in [9], 24.9 µM; in assay [4], 88.1 µM; in assay [5], greater than 100 µM. In addition, the TGI in [6] was determined as 41.4 µM; in assay [7], 29.5 µM; in [8] it was 29.8 µM.

`COc1cc2c(cc1OC)/C(=C\c1ccccc1N)C(=O)OC2`: the TGI stood at 34.7 µM in assay [1]; 41.5 µM in assay [2]; 32.2 µM in assay [3]; 27.2 µM in assay [9]; 10.3 µM in assay [4]; 45.4 µM in assay [5]. The values for the TGI in assay [6], in [7] and in [8] were 44.2 µM, 31 µM and 31.4 µM, respectively.

`Clc1ccc(C(n2cc(Br)cn2)n2cc(Br)cn2)cc1`: the TGI in assay [1] was 27.6 µM; in [2], 32.6 µM; in assay [3], 28.7 µM; in assay [9], 33.2 µM; in assay [4], 60.2 µM; in assay [10] it was 22.5 µM. The figures for the TGI in assay [5], in [6] and in assay [8] were 34.3 µM, 38.9 µM and 32.3 µM, respectively.

Take `CC12CCC(Br)C(C)(C)C1CC=C1C(=O)OCC1O2` (centres undefined): the TGI is 26.2 µM in [1]; 28.6 µM in assay [2]; 25.7 µM in assay [3]; 39 µM in [9]; greater than 60.6 µM in assay [4]; 23.2 µM in assay [10]. For the same molecule, the TGI is 47 µM in assay [6], greater than 100 µM in [7] and greater than 55.9 µM in [8].

For `C=C1C(=O)O[C@H]2[C@H]1CC/C(Cn1cc(-c3ccccc3C(F)(F)F)nn1)=C\CC[C@@]1(C)O[C@@H]21`, the GI50 was 1450 nM in [1]; 1750 nM in [2]; 1050 nM in assay [9]; 1870 nM in assay [4]; 1.73 µM in assay [10]; 4720 nM in assay [5]. In addition, the GI50 in [6] was 2320 nM; in assay [7], 1760 nM; in assay [8] it was 2480 nM. The TGI in assay [1] amounted to 2.93 µM; in [2] it was 3.47 µM; in [9], 2.43 µM; in [4] it was 8.49 µM; in [10], 4.69 µM; in [5] it was 18.7 µM. Moreover, the figures for the TGI in assay [6], in assay [7] and in assay [8] were 7.12 µM, 3.56 µM and 7.46 µM, respectively.
